# Test system: Salmonella
# Test: Salmonella detection (drag swabs, ISO 6579-1:2017) in poultry (turkey) buildings one week after spraying of disinfectant
# Design: species or system Salmonella spp.
# Settings: Experiment 3; one week after application; 500 liter per 1000 m^2
smiles,measurement,value
"Cc1ccc(S(=O)(=O)NCl)cc1.[Na] [Chlorigal T, Sodium N-chloro-para-toluenesulfonamide]","Salmonella test result, Sample #1",Negative
same,"Salmonella test result, Sample #2",Negative

# Reference: US20250212884A1, “Magnesia Compounds For Preventing Contamination Of Animal Farming Facilities And For Decontamination Of Same” (priority 2022, published 2025)
